Columns and labels:
Assay type in all cases: in vivo
Solanum nigrum (SOLNI) [1] = assay: Pre-emergence herbicidal glasshouse test on Solanum nigrum; conditions: pre-emergence; 1000 g/h; evaluated after 13 days
Outline: (§1)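 Read-out: percentage herbicidal damage 13 days after spraying, given on a five-point scale (5=80-100%, 4=60-79%, 3=40-59%, 2=20-39%, 1=0-19%). Pots of standard soil; application at 1000 g/h, one day post-sowing for pre-emergence, eight days for post-emergence.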

[2] = system: Alopecurus myosuroides (ALOMY); assay: Post-emergence herbicidal glasshouse test on Alopecurus myosuroides; conditions: post-emergence; 1000 g/h; evaluated after 13 days
Outline: as §1

Setaria faberi (SETFA) [3] = assay: Pre-emergence herbicidal glasshouse test on Setaria faberi; conditions: pre-emergence; 1000 g/h; evaluated after 13 days
Outline: as §1

Solanum nigrum (SOLNI) [4] = assay: Post-emergence herbicidal glasshouse test on Solanum nigrum; conditions: post-emergence; 1000 g/h; evaluated after 13 days
Outline: as §1

[5] = system: Ipomoea hederacea (IPOHE); assay: Pre-emergence herbicidal glasshouse test on Ipomoea hederacea; conditions: pre-emergence; 1000 g/h; evaluated after 13 days
Outline: as §1

[6] = system: Echinochloa crus-galli (ECHCG); assay: Pre-emergence herbicidal glasshouse test on Echinochloa crus-galli; conditions: pre-emergence; 1000 g/h; evaluated after 13 days
Outline: as §1

[7] = system: Amaranthus retoflexus (AMARE); assay: Post-emergence herbicidal glasshouse test on Amaranthus retoflexus; conditions: post-emergence; 1000 g/h; evaluated after 13 days
Outline: as §1

[8] = system: Echinochloa crus-galli (ECHCG); assay: Post-emergence herbicidal glasshouse test on Echinochloa crus-galli; conditions: post-emergence; 1000 g/h; evaluated after 13 days
Outline: as §1

[9] = system: Alopecurus myosuroides (ALOMY); assay: Pre-emergence herbicidal glasshouse test on Alopecurus myosuroides; conditions: pre-emergence; 1000 g/h; evaluated after 13 days
Outline: as §1

[10] = system: Ipomoea hederacea (IPOHE); assay: Post-emergence herbicidal glasshouse test on Ipomoea hederacea; conditions: post-emergence; 1000 g/h; evaluated after 13 days
Outline: as §1

Setaria faberi (SETFA) [11] = assay: Post-emergence herbicidal glasshouse test on Setaria faberi; conditions: post-emergence; 1000 g/h; evaluated after 13 days
Outline: as §1

[12] = system: Amaranthus retoflexus (AMARE); assay: Pre-emergence herbicidal glasshouse test on Amaranthus retoflexus; conditions: pre-emergence; 1000 g/h; evaluated after 13 days
Outline: as §1

CCCn1ncc(-c2ccc(S(C)(=O)=O)c(C3=NOCC3)c2Cl)c(O)c1=O [Compound 1.125, 5-[2-chloro-3-(4,5-dihydroisoxazol-3-yl)-4-methylsulfonyl-phenyl]-4-hydroxy-2-propyl-pyridazin-3-one]
PRE Application SOLNI herbicidal damage (five point scale) (Solanum nigrum (SOLNI) [1]): 4 (4=60-79% damage)
POST Application ALOMY herbicidal damage (five point scale) [2]: 5 (5=80-100% damage)
PRE Application SETFA herbicidal damage (five point scale) (Setaria faberi (SETFA) [3]): 5 (5=80-100% damage)
POST Application SOLNI herbicidal damage (five point scale) (Solanum nigrum (SOLNI) [4]): 5 (5=80-100% damage)
PRE Application IPOHE herbicidal damage (five point scale) [5]: 1 (1=0-19% damage)
PRE Application ECHCG herbicidal damage (five point scale) [6]: 5 (5=80-100% damage)
POST Application AMARE herbicidal damage (five point scale) [7]: 5 (5=80-100% damage)
POST Application ECHCG herbicidal damage (five point scale) [8]: 5 (5=80-100% damage)
PRE Application ALOMY herbicidal damage (five point scale) [9]: 4 (4=60-79% damage)
POST Application IPOHE herbicidal damage (five point scale) [10]: 5 (5=80-100% damage)
POST Application SETFA herbicidal damage (five point scale) (Setaria faberi (SETFA) [11]): 5 (5=80-100% damage)
PRE Application AMARE herbicidal damage (five point scale) [12]: 5 (5=80-100% damage)

Cn1ncc(-n2ccc(C(F)(F)F)c(-c3ccc(C#N)cc3)c2=O)c(O)c1=O [Compound 7.031]
PRE Application SOLNI herbicidal damage (five point scale) (Solanum nigrum (SOLNI) [1]): 5 (5=80-100% damage)
POST Application ALOMY herbicidal damage (five point scale) [2]: 5 (5=80-100% damage)
PRE Application SETFA herbicidal damage (five point scale) (Setaria faberi (SETFA) [3]): 5 (5=80-100% damage)
POST Application SOLNI herbicidal damage (five point scale) (Solanum nigrum (SOLNI) [4]): 5 (5=80-100% damage)
PRE Application IPOHE herbicidal damage (five point scale) [5]: 5 (5=80-100% damage)
PRE Application ECHCG herbicidal damage (five point scale) [6]: 5 (5=80-100% damage)
POST Application AMARE herbicidal damage (five point scale) [7]: 5 (5=80-100% damage)
POST Application ECHCG herbicidal damage (five point scale) [8]: 5 (5=80-100% damage)
PRE Application ALOMY herbicidal damage (five point scale) [9]: 5 (5=80-100% damage)
POST Application IPOHE herbicidal damage (five point scale) [10]: 5 (5=80-100% damage)
POST Application SETFA herbicidal damage (five point scale) (Setaria faberi (SETFA) [11]): 5 (5=80-100% damage)
PRE Application AMARE herbicidal damage (five point scale) [12]: 5 (5=80-100% damage)

CC[S+]([O-])c1ccccc1-c1cnn(C)c(=O)c1O (stereo not drawn) [Compound 1.041]
PRE Application SOLNI herbicidal damage (five point scale) (Solanum nigrum (SOLNI) [1]): 2 (2=20-39% damage)
POST Application ALOMY herbicidal damage (five point scale) [2]: 4 (4=60-79% damage)
PRE Application SETFA herbicidal damage (five point scale) (Setaria faberi (SETFA) [3]): 2 (2=20-39% damage)
POST Application SOLNI herbicidal damage (five point scale) (Solanum nigrum (SOLNI) [4]): 5 (5=80-100% damage)
PRE Application IPOHE herbicidal damage (five point scale) [5]: 1 (1=0-19% damage)
PRE Application ECHCG herbicidal damage (five point scale) [6]: 4 (4=60-79% damage)
POST Application AMARE herbicidal damage (five point scale) [7]: 5 (5=80-100% damage)
POST Application ECHCG herbicidal damage (five point scale) [8]: 5 (5=80-100% damage)
PRE Application ALOMY herbicidal damage (five point scale) [9]: 3 (3=40-59% damage)
POST Application IPOHE herbicidal damage (five point scale) [10]: 5 (5=80-100% damage)
POST Application SETFA herbicidal damage (five point scale) (Setaria faberi (SETFA) [11]): 5 (5=80-100% damage)
PRE Application AMARE herbicidal damage (five point scale) [12]: 4 (4=60-79% damage)

Cc1cc(F)ccc1-c1cnn(C)c(=O)c1O [Compound 1.093]
PRE Application SOLNI herbicidal damage (five point scale) (Solanum nigrum (SOLNI) [1]): 1 (1=0-19% damage)
POST Application ALOMY herbicidal damage (five point scale) [2]: 1 (1=0-19% damage)
PRE Application SETFA herbicidal damage (five point scale) (Setaria faberi (SETFA) [3]): 1 (1=0-19% damage)
POST Application SOLNI herbicidal damage (five point scale) (Solanum nigrum (SOLNI) [4]): 2 (2=20-39% damage)
PRE Application IPOHE herbicidal damage (five point scale) [5]: 1 (1=0-19% damage)
PRE Application ECHCG herbicidal damage (five point scale) [6]: 1 (1=0-19% damage)
POST Application AMARE herbicidal damage (five point scale) [7]: 1 (1=0-19% damage)
POST Application ECHCG herbicidal damage (five point scale) [8]: 1 (1=0-19% damage)
PRE Application ALOMY herbicidal damage (five point scale) [9]: 1 (1=0-19% damage)
POST Application IPOHE herbicidal damage (five point scale) [10]: 1 (1=0-19% damage)
POST Application SETFA herbicidal damage (five point scale) (Setaria faberi (SETFA) [11]): 1 (1=0-19% damage)
PRE Application AMARE herbicidal damage (five point scale) [12]: 1 (1=0-19% damage)

Cn1ncc(-c2ccccc2[S+]([O-])C(F)(F)F)c(O)c1=O (stereo not drawn) [Compound 1.055]
PRE Application SOLNI herbicidal damage (five point scale) (Solanum nigrum (SOLNI) [1]): 4 (4=60-79% damage)
POST Application ALOMY herbicidal damage (five point scale) [2]: 1 (1=0-19% damage)
PRE Application SETFA herbicidal damage (five point scale) (Setaria faberi (SETFA) [3]): 1 (1=0-19% damage)
POST Application SOLNI herbicidal damage (five point scale) (Solanum nigrum (SOLNI) [4]): 5 (5=80-100% damage)
PRE Application IPOHE herbicidal damage (five point scale) [5]: 2 (2=20-39% damage)
PRE Application ECHCG herbicidal damage (five point scale) [6]: 2 (2=20-39% damage)
POST Application AMARE herbicidal damage (five point scale) [7]: 5 (5=80-100% damage)
POST Application ECHCG herbicidal damage (five point scale) [8]: 4 (4=60-79% damage)
PRE Application ALOMY herbicidal damage (five point scale) [9]: 1 (1=0-19% damage)
POST Application IPOHE herbicidal damage (five point scale) [10]: 4 (4=60-79% damage)
POST Application SETFA herbicidal damage (five point scale) (Setaria faberi (SETFA) [11]): 1 (1=0-19% damage)
PRE Application AMARE herbicidal damage (five point scale) [12]: 5 (5=80-100% damage)

Cn1ncc(-c2ccc(C(F)(F)F)nc2S(=O)(=O)N2CCOCC2)c(O)c1=O [Compound 4.016]
PRE Application SOLNI herbicidal damage (five point scale) (Solanum nigrum (SOLNI) [1]): 5 (5=80-100% damage)
POST Application ALOMY herbicidal damage (five point scale) [2]: 5 (5=80-100% damage)
PRE Application SETFA herbicidal damage (five point scale) (Setaria faberi (SETFA) [3]): 5 (5=80-100% damage)
POST Application SOLNI herbicidal damage (five point scale) (Solanum nigrum (SOLNI) [4]): 5 (5=80-100% damage)
PRE Application IPOHE herbicidal damage (five point scale) [5]: 5 (5=80-100% damage)
PRE Application ECHCG herbicidal damage (five point scale) [6]: 5 (5=80-100% damage)
POST Application AMARE herbicidal damage (five point scale) [7]: 5 (5=80-100% damage)
POST Application ECHCG herbicidal damage (five point scale) [8]: 5 (5=80-100% damage)
PRE Application ALOMY herbicidal damage (five point scale) [9]: 5 (5=80-100% damage)
POST Application IPOHE herbicidal damage (five point scale) [10]: 5 (5=80-100% damage)
POST Application SETFA herbicidal damage (five point scale) (Setaria faberi (SETFA) [11]): 5 (5=80-100% damage)
PRE Application AMARE herbicidal damage (five point scale) [12]: 5 (5=80-100% damage)

COc1ccc(C(C)C)cc1-c1c(C(F)(F)F)ccn(-c2cnn(C)c(=O)c2O)c1=O [Compound 7.015]
PRE Application SOLNI herbicidal damage (five point scale) (Solanum nigrum (SOLNI) [1]): 5 (5=80-100% damage)
POST Application ALOMY herbicidal damage (five point scale) [2]: 2 (2=20-39% damage)
PRE Application SETFA herbicidal damage (five point scale) (Setaria faberi (SETFA) [3]): 4 (4=60-79% damage)
POST Application SOLNI herbicidal damage (five point scale) (Solanum nigrum (SOLNI) [4]): 5 (5=80-100% damage)
PRE Application IPOHE herbicidal damage (five point scale) [5]: 4 (4=60-79% damage)
PRE Application ECHCG herbicidal damage (five point scale) [6]: 3 (3=40-59% damage)
POST Application AMARE herbicidal damage (five point scale) [7]: 5 (5=80-100% damage)
POST Application ECHCG herbicidal damage (five point scale) [8]: 4 (4=60-79% damage)
PRE Application ALOMY herbicidal damage (five point scale) [9]: 3 (3=40-59% damage)
POST Application IPOHE herbicidal damage (five point scale) [10]: 3 (3=40-59% damage)
POST Application SETFA herbicidal damage (five point scale) (Setaria faberi (SETFA) [11]): 3 (3=40-59% damage)
PRE Application AMARE herbicidal damage (five point scale) [12]: 5 (5=80-100% damage)

CS(=O)(=O)c1cc(C(F)(F)F)ccc1-c1cnn(C2CC2)c(=O)c1O [Compound 2.015]
PRE Application SOLNI herbicidal damage (five point scale) (Solanum nigrum (SOLNI) [1]): 5 (5=80-100% damage)
POST Application ALOMY herbicidal damage (five point scale) [2]: 5 (5=80-100% damage)
PRE Application SETFA herbicidal damage (five point scale) (Setaria faberi (SETFA) [3]): 5 (5=80-100% damage)
POST Application SOLNI herbicidal damage (five point scale) (Solanum nigrum (SOLNI) [4]): 5 (5=80-100% damage)
PRE Application IPOHE herbicidal damage (five point scale) [5]: 5 (5=80-100% damage)
PRE Application ECHCG herbicidal damage (five point scale) [6]: 5 (5=80-100% damage)
POST Application AMARE herbicidal damage (five point scale) [7]: 5 (5=80-100% damage)
POST Application ECHCG herbicidal damage (five point scale) [8]: 5 (5=80-100% damage)
PRE Application ALOMY herbicidal damage (five point scale) [9]: 5 (5=80-100% damage)
POST Application IPOHE herbicidal damage (five point scale) [10]: 5 (5=80-100% damage)
POST Application SETFA herbicidal damage (five point scale) (Setaria faberi (SETFA) [11]): 5 (5=80-100% damage)
PRE Application AMARE herbicidal damage (five point scale) [12]: 5 (5=80-100% damage)

Cc1ccc(Cl)c(-c2cnn(C)c(=O)c2O)c1 [Compound 1.101]
PRE Application SOLNI herbicidal damage (five point scale) (Solanum nigrum (SOLNI) [1]): 1 (1=0-19% damage)
POST Application ALOMY herbicidal damage (five point scale) [2]: 1 (1=0-19% damage)
PRE Application SETFA herbicidal damage (five point scale) (Setaria faberi (SETFA) [3]): 1 (1=0-19% damage)
POST Application SOLNI herbicidal damage (five point scale) (Solanum nigrum (SOLNI) [4]): 1 (1=0-19% damage)
PRE Application IPOHE herbicidal damage (five point scale) [5]: 1 (1=0-19% damage)
PRE Application ECHCG herbicidal damage (five point scale) [6]: 1 (1=0-19% damage)
POST Application AMARE herbicidal damage (five point scale) [7]: 1 (1=0-19% damage)
POST Application ECHCG herbicidal damage (five point scale) [8]: 1 (1=0-19% damage)
PRE Application ALOMY herbicidal damage (five point scale) [9]: 1 (1=0-19% damage)
POST Application IPOHE herbicidal damage (five point scale) [10]: 1 (1=0-19% damage)
POST Application SETFA herbicidal damage (five point scale) (Setaria faberi (SETFA) [11]): 1 (1=0-19% damage)
PRE Application AMARE herbicidal damage (five point scale) [12]: 1 (1=0-19% damage)
